Test results as given in patent US20110130425A1, “Use of H3 Histaminergic Agonists for the Treatment of Addiction to Drugs of Abuse” (priority 2009, published 2011).

What was measured:
[1] = system: alcohol-seeking responses (craving); test: Cue-induced reinstatement of ethanol-seeking behavior; type: in vivo, rat; settings: L-histidine acute injection; rats
Experimental: The goal of this study is to evaluate the effects of a H3 histaminergic ligand, such as L-histidine, in a gold-standard model in the alcohol field. Namely, cue-induced reinstatement of alcohol-seeking behavior in order to measure alcohol-seeking responses (craving).
Priming and cue-induced reinstatement of ethanol-seeking behavior: Rats are trained to self-administer 10% (v/v) ethanol in a single 30 minute daily session on a Fixed Ratio 1 (FR 1) schedule. During the first three days of training, responses at the left lever are reinforced by delivery of 0.2% (w/v) saccharin solution. Following acquisition of saccharin-reinforced responding, rats are trained to self-administer ethanol. Thus, rats have access to 0.2% saccharin with 5% ethanol for one day, 5% ethanol for 1 day, 0.2% saccharin with 8% ethanol for 1 day, 8% ethanol for 1 day, 0.2% saccharin with 10% ethanol for 1 day, and 10% ethanol for 1 day. During all the training phase, responses at the right lever result in the delivery of a drop of water.
During the conditioning phase, animals are trained to discriminate the availability of ethanol (reward) vs. water (non-reward). This phase starts after completion of the saccharin-fading procedure. […] The 5 second period serves as “time-out” during which responses are recorded but not reinforced. […]

alcohol relapse behavior = test: Alcohol Deprivation Effect (ADE) paradigm; type: in vivo, rat; settings: L-histidine; rats
Experimental: The effects of a H3 histaminergic ligand, such as L-histidine, are tested in our well-established model of relapse-like drinking behavior.
Alcohol Deprivation Effect (ADE) paradigm: All rats are given continuous access to tap water and to 5%, 10% and 20% (v/v) ethanol solutions in their home cages. Spillage and evaporation is minimized by the use of self-made bottles. All drinking solutions are renewed weekly and the positions of the four bottles are changed to avoid location preferences. After eight weeks of continuous access, ethanol solutions are repeatedly withdrawn for 3-21 days (deprivation phases) every four weeks until the rats become alcohol-dependent (as measured by a sucrose and quinine tests). The effects of a H3 histaminergic ligand are then tested on the expression of the alcohol deprivation effect (=relapse behavior). A second ADE study is initiated 3 months later in order to study the persistence of treatment efficacy.
Past pharmacological studies in home cage drinking models were hampered by the fact that measurements were performed at 24 hour intervals. Thus the exact temporal profile of drug treatment could not be assessed under home cage drinking conditions and sometimes pharmacological effects became masked by the use of measurements every 24 hours. This problem has now been solved in our lab by the use of a fully-automated drinkometer system. […]

alcohol seeking behavior = test: Relapse into seeking alcohol self-administration (reinstatement by alcohol or foot-shock stress); type: in vivo, Sprague-Dawley rat; settings: L-histidine 1 g/kg orally, rats
Experimental: Fourteen male Sprague-Dawley rats obtained from Charles-River weighing 200 g at the beginning of the protocol are used. Rats are water-deprived for the few hours before the first overnight session. Rats are placed in an operant chamber (Panlab) with two levers. Pressing the “active” lever provides access to 0.1 ml of a 20% sucrose solution under a continuous reinforcement program. A light above the active lever signals availability of the solution in a drinking chamber for 20 seconds.
The following daily sessions take 60 minutes and water is provided ad libitum. […] Afterwards, the program is increased to Fixed Ratio 2 (FR2), i.e., two lever presses give access to one reinforcement. Self-administration is maintained next to FR3 and finally to FR5.
Before extinction sessions, saline is administered orally (5 ml/kg) to all rats. For extinction training, rats are placed in the same operant chambers but no alcohol access or cue light is contingent on lever press. Once rats decrease lever press to less than 10 presses per hour they are considered ready for reinstatement (relapse) procedures.
Before the reinstatement sessions, saline 5 ml/kg or L-histidine 1 g/kg (dissolved in saline and adjusted to pH 5) are administered orally to the rats. […]

[2] = system: reinforcement produced by cocaine; test: Reinforcement phase: cocaine self-administration dose/response; type: in vivo, rat; settings: L-histidine 500 mg/kg single dose one hour before reinforcement; even at 0.03 mg/kg cocaine; rats

With `N[C@@H](Cc1c[nH]cn1)C(=O)O` [L-histidine] as the molecule, how does the “alcohol seeking (craving) induced by cues” value [1] read?
The value was “decreases alcohol seeking”.

What about the “relapse into alcohol drinking after alcohol deprivation (alcohol deprivation effect)” value (alcohol relapse behavior) of the same molecule?
Its value is “decreases relapse”.

And the “reinstatement of alcohol seeking behavior caused by stress” value (alcohol seeking behavior; foot-shock stress)?
Its value is “decreases the reinstatement”.

And the “reinstatement of alcohol seeking behavior caused by exposure to ethanol” value (alcohol seeking behavior)?
Its value is “decreases the reinstatement”.

And the “tendency to seek cocaine (self-injections in 2 hours)” value [2]?
The value was “diminished the tendency to seek cocaine”.
